Patent US20240246905A1 (University of Leicester, priority 2021, published 2024)
Converted amounts (≈) assume the structure as drawn. Where two headings read alike, the source gives them in different places.

What was measured:
MRSA 252 [1] = test: MIC, broth micro-dilution; type: cell-based, Staphylococcus aureus
Method: (§1) E. coli DH5α, P. aeruginosa PA01 and the 53 S. aureus strains were recovered from frozen (−80° C.) glycerol (15% v/v) stocks on Lysogeny agar (LA)—Gram negative and trypticase soy agar (TSA)—plates at 37° C. for 24 hours. Single colonies were placed in either 3 mL Lysogeny broth (LB)—Gram negative or trypticase soy broth (TSB)—Gram positive and incubated at 37° C., 250 rpm for 18 hours.
(§2) Antibiotic MIC's were determined by a broth micro-dilution method according to Clinical Standard Laboratory Institute (CSLI) Guidelines (2017). Briefly, 96-well microplates, each containing 195 μL of the 1:2 dilution antibiotic in TSB, were inoculated with 5 μL of overnight cultured bacteria, diluted to give a starting bacterial concentration of 5×10^5 CFU/mL. The optical density of each well inoculated was recorded every 12 minutes over an 18 hour period at 37° C. The data from this was plotted in OriginPro8 (OriginLab) and sigmoidal curves fitted using the dose response function. Fitted values for each curve were used to calculate the MIC.

MSSA 476 [2] = test: MIC, broth micro-dilution; type: cell-based, Staphylococcus aureus
Method: as §1, §2

MRSA 252 [3] = test: Disc diffusion (Kirby-Bauer), zone of inhibition; type: cell-based, Staphylococcus aureus; details: 500 μg/mL, '/' = no zone; for zone of inhibition at 500 µg/mL: Staphylococcus aureus
Method: as §1
(§3) The antibiotic activity was determined using a Kirby-Bauer method according to Clinical Standard Laboratory Institute (CSLI) Guidelines (2017). Briefly, 180 μL of a 1 in 200 dilution (in LB or TSB) of overnight cultures of selected Gram negative and Gram positive bacteria were applied to an agar plate containing the solid growth medium, Mueller-Hinton agar (MHA). Sterile discs, inoculated with 50 μL of antibiotic, were first added to the agar plate before the plates were incubated for 24 hours at 37° C. Following incubation, the zone of inhibition (if it existed) was recorded.

MSSA 476 [4] = test: Disc diffusion (Kirby-Bauer), zone of inhibition; type: cell-based, Staphylococcus aureus; details: 500 μg/mL, '/' = no zone; for zone of inhibition at 500 µg/mL: Staphylococcus aureus
Method: as §1, §3

[5] = tested on: Staphylococcus aureus 15981; test: Disc diffusion (Kirby-Bauer), zone of inhibition; type: cell-based; details: 500 μg/mL, '/' = no zone
Method: as §1, §3

C. albicans ATCC 90028 = test: Anti-fungal MIC (CO-ADD); type: cell-based; details: Candida albicans, ATCC90028, read-out: MIC
Method: (§4) Fungal strains were cultured for 3 days on Yeast Extract-Peptone Dextrose (YPD) agar at 30° C. A yeast suspension of 1×10^6 to 5×10^6 CFU/mL (as determined by OD530) was prepared from five colonies. […] All plates were covered and incubated at 35° C. for 36 hours without shaking. […] The absorbance was measured using a Biotek Multiflo Synergy HTX plate reader. In both cases, the percentage of growth inhibition was calculated for each well, using the negative control (media only) and positive control (fungi without inhibitors) on the same plate. […] Due to a higher variance in growth and inhibition, a lower threshold was applied to the data for C. neoformans. In addition, the maximal percentage of growth inhibition is reported as DMax, indicating any compounds with marginal activity.

[6] = tested on: C. deuterogattii ATCC 32609; test: Anti-fungal MIC (CO-ADD); type: cell-based; details: read-out: MIC
Method: as §4

C. glabrata ATCC 90030 = test: Anti-fungal MIC (CO-ADD); type: cell-based; details: Nakaseomyces glabratus, ATCC90030, read-out: MIC
Method: as §4

[7] = tested on: C. neoformans H99; ATCC 208821; test: Anti-fungal MIC (CO-ADD); type: cell-based; details: Cryptococcus neoformans, ATCC208821, read-out: MIC
Method: as §4

C. tropicalis ATCC 450 = test: Anti-fungal MIC (CO-ADD); type: cell-based; details: Candida tropicalis, ATCC450, read-out: MIC
Method: as §4

C. tropicalis ATCC 750 = test: Anti-fungal MIC (CO-ADD); type: cell-based; details: Candida tropicalis, ATCC750, read-out: MIC
Method: as §4

Galleria mellonella = test: Systemic toxicity, Galleria mellonella survival; details: n = 10, injection of 500 μg/mL
Method: Galleria mellonella wax worms purchased from www.livefoods.co.uk were inoculated with 10 μL of a series of dilutions of the antibiotics synthesised in-house. The antibiotic concentrations chosen for this study were the following: 1000 μg/mL, 500 μg/mL, 250 μg/mL, 125 μg/mL and 31.25 μg/mL. Each dilution was injected into 10 individual wax worms through their last pro-leg. The injected wax worms were stored at 25° C. for 5 days. The cytotoxicity was determined as the percentage survival rate of Galleria mellonella Wax worms after 5 days inoculation.

Escherichia coli DH5α = test: Disc diffusion (Kirby-Bauer), zone of inhibition; type: cell-based
Method: as §1, §3

[8] = tested on: Pseudomonas aeruginosa PA01; test: Disc diffusion (Kirby-Bauer), zone of inhibition; type: cell-based; details: 500 μg/mL, '/' = no zone
Method: as §1, §3

[9] = tested on: MRSA 252, MSSA 476, S. aureus 15981, P. aeruginosa PA01 and E. coli DH5α; test: Disc diffusion primary screening, five strains (statements in words); type: cell-based; details: 500 μg/mL
Method: As such, the minimum inhibition concentration (MICs) of biologically active compounds were further assessed using the broth dilution method against the S. aureus strains; MRSA 252 and MSSA 476 (Table 1). The results of both assays enabled key structural elements and functional groups required for the compounds to retain their antibiotic activity to be identified.
as §3

HEK293 cells = test: Cytotoxicity assay, resazurin (CO-ADD); details: HEK 293
Method: The cytotoxicity studies were performed by CO-ADD (The Community for Open Antimicrobial Drug Discovery), funded by the Wellcome trust (UK) and the University of Queensland, Australia.^(28) In this study, the compounds were screened against a human embryonic kidney cell line, HEK293, at a set concentration of 32 μg/mL.
DMEM supplemented with 10% FBS was used as growth media and the cells were incubated together with the compounds for 20 hours at 37° C. in 5% CO2.
Cytotoxicity (or cell viability) was measured by fluorescence, excitation: 560/10 nm, emission: 590/10 nm (F560/590), after addition of 5 μL of 25 μg/mL Resazurin (2.3 μg/mL final concentration) and after incubation for further 3 h at 37° C. in 5% CO2. The fluorescence intensity was measured using a Tecan M1000 Pro monochromator plate reader, using automatic gain calculation CC50 (concentration at 50% cytotoxicity) were calculated by curve fitting the inhibition values vs. log(concentration) using sigmoidal dose-response function, with variable fitting values for bottom, top and slope. The curve fitting was implemented using Pipeline Pilot's dose-response component.

red blood cells = test: Hemolysis assay (CO-ADD); type: cell-based; details: 32 μg/mL highest concentration tested
Text: A problem often encountered by emerging drugs is hemolysis, also known as drug-induced immune hemolytic anemia.

Manduca sexta = test: Systemic toxicity, Manduca sexta survival and mass growth; type: in vivo; details: 1% solution, by 48 hours
Text: The use of Galleria for evaluating systemic toxicity study provided a straightforward method for screening any immediate toxicity issues associated with the lead compounds. One problem encountered with this model is the complications of obtaining quantitative results since only live/dead outcomes can be recorded. As an alternative and quantitative approach for systemic toxicity, it was decided to use a new model using Manduca sexta as the subject, replacing the much smaller and difficult to handle, Galleria mellonella. The Manduca sexta assay allows for the mass change of the larvae to be measured over hours/days, thus giving information not only on survival but also on the organisms' fitness^(26) Promisingly, the 72 hour assay performed at concentrations of 1 mg/mL on the selected lead compounds gave identical results to those obtained using the Galleria infection model, indicating no apparent toxicity issues for the compounds. […] As a […] control, the Manduca were injected with a 1% solution of NaN3. […]
[…] The mass of each hornworm was measured before and up to 72 hours after injection at set 24 hour intervals. The systemic toxicity was determined as the percentage survival and mass growth relative to the positive control at the pre-determined set intervals.

MRSA 252 [10] = test: Resistance testing by serial passaging; type: cell-based, S. aureus; details: 18 serial passage cycles
Method: Next a serial passage study was undertaken in order to elucidate the speed at which target bacteria might either evolve resistance or select for persister cells within that population following exposure to compound 36.
For resistance development by serial passaging, 5 μL of overnight cultured MRSA 252 cells were added to individual wells in a 96-well plate containing 195 μL of TSB supplemented with a range of antibiotic concentrations and incubated at 37° C. for 18 hours. Ofloxacin served as a control. Wells where bacterial growth was visible after 18 hours were plated on TSA plates and incubated at 37° C. for a further 18 hours. Single colonies obtained from the overnight cultured bacteria were then inoculated into fresh TSB medium, incubated at 37° C. for 18 hours before being used in the next cycle of the resistance testing. This process continued for 18 cycles.

[11] = tested on: methicillin resistant Staphylococcus aureus strains; type: cell-based; details: clinically relevant methicillin resistant Staphylococcus aureus strains
insect phenol-oxidases = test: Inhibition of insect phenol-oxidases; type: biochemical
[12] = Staphylococcus aureus, read-out: MIC
[13] = Staphylococcus aureus, MSSA, read-out: MIC
[14] = Staphylococcus aureus 15981, read-out: Zone of inhibition

## [C-]#[N+]C=Cc1ccc(O)cc1Br [Compound 15, 3-Bromo-4-(2-isocyanovinyl)phenol]
MRSA 252 [1]; [12]
  MIC: 185 µg/mL (≈ 826 µM)
MSSA 476 [2]; [13]
  MIC: 200 µg/mL (≈ 893 µM)
MRSA 252 [3]; read-out: Zone of inhibition
  zone of inhibition at 500 µg/mL: 20 mm
MSSA 476 [4]; read-out: Zone of inhibition
  zone of inhibition at 500 µg/mL: 22 mm
[5]; [14]
  zone of inhibition at 500 µg/mL: 24 mm
C. albicans ATCC 90028
  MIC: 8 µg/mL
[6]
  MIC: 4 µg/mL
C. glabrata ATCC 90030
  MIC: 32 µg/mL
[7]
  MIC: 8 µg/mL
C. tropicalis ATCC 450
  MIC: 4 µg/mL
C. tropicalis ATCC 750
  MIC: 16 µg/mL

## [C-]#[N+]C=Cc1c[nH]c2ccccc12 [Compound 25, 3-(2-Isocyanovinyl)-1H-indole]
MRSA 252 [1]
  MIC: 61 µg/mL (≈ 363 µM)
MSSA 476 [2]; Staphylococcus aureus, MSSA
  MIC: 166 µg/mL (≈ 987 µM)
MRSA 252 [3]; MRSA
  zone of inhibition at 500 µg/mL: 18 mm
MSSA 476 [4]; MSSA
  zone of inhibition at 500 µg/mL: 16 mm
[5]; Staphylococcus aureus, 15981, Staphylococcus aureus 15981
  zone of inhibition at 500 µg/mL: 16 mm
Galleria mellonella
  % survival after 5 days: 90%

## [C-]#[N+]C=Cc1c[nH]c2ccccc12 [Compound 26, 3-(2-Isocyanovinyl)-1H-indole]
MRSA 252 [1]
  MIC: 20 µg/mL (≈ 119 µM)
MSSA 476 [2]
  MIC: 222 µg/mL (≈ 1320 µM)
MRSA 252 [3]
  Zone of inhibition: 20 mm
MSSA 476 [4]
  Zone of inhibition: 20 mm
Escherichia coli DH5α; Escherichia coli
  zone of inhibition at 500 µg/mL: 20 mm
[5]; Staphylococcus aureus 15981
  Zone of inhibition: 22 mm
Galleria mellonella
  % survival after 5 days: 100%

## [C-]#[N+]/C=C/c1ccccc1/C=C/c1ccccc1 [Compound 38, 1-((E)-2-Isocyanovinyl)-2-((E)-styryl)benzene]
MRSA 252 [1]; [12]
  MIC: 5 µg/mL (≈ 21.6 µM)
MSSA 476 [2]; [13]
  MIC: 3 µg/mL (≈ 13 µM)
MRSA 252 [3]; read-out: Zone of inhibition
  zone of inhibition at 500 µg/mL: 30 mm
MSSA 476 [4]; read-out: Zone of inhibition
  zone of inhibition at 500 µg/mL: 30 mm
Escherichia coli DH5α; Escherichia coli DH5α, 500 μg/mL, '/' = no zone, read-out: Zone of inhibition
  zone of inhibition at 500 µg/mL: 28 mm
[8]
  zone of inhibition at 500 µg/mL: 26 mm
[5]; [14]
  zone of inhibition at 500 µg/mL: 28 mm
[9]
  antibiotic activity in disc diffusion assays (in words): retained antibiotic activity
C. albicans ATCC 90028
  MIC: 2 to 4 µg/mL
[6]
  MIC: 2 µg/mL
C. glabrata ATCC 90030
  MIC: > 32 µg/mL
[7]
  MIC: 4 µg/mL
C. tropicalis ATCC 450
  MIC: 2 µg/mL
C. tropicalis ATCC 750
  MIC: 8 to 16 µg/mL
HEK293 cells
  Concentration toxic to HEK 293 cells: >32000 ng/mL
Red blood cells
  Hemolytic activity (HC10): >32 µg/mL

## [N-]=[N+]=[N-].[Na+] [Negative Control (NaN3), NaN3, reference compound]
Galleria mellonella
  % survival after 5 days: 0%
Manduca sexta
  survival of Manduca sexta: had all died

## CC1COc2c(N3CCN(C)CC3)c(F)cc3c(=O)c(C(=O)O)cn1c23 (stereo not shown) [ofloxacin, reference compound]
MRSA 252 [10]
  increase in MIC after serial passage: greater than 10 fold

## Byelyankacin
[11]
  antibiotic activity (in words): good antibiotic activity
Insect phenol-oxidases
  inhibition of insect phenol-oxidases (in words): inhibitor of insect phenol-oxidases

## phenol vinyl isocyanide [(E)-4]
[11]
  antibiotic activity (in words): good antibiotic activity
